Source: ChEMBL document CHEMBL4680117, “Discovery of 3,3'-pyrrolidinyl-spirooxindoles as cardioprotectant prohibitin ligands” (Eur J Med Chem, 2020)
pEC50: −log10 of the molar value. Calls of active or inactive are those of the source. The calls are words filed in the database; no cut-off is given here.

What was measured:
[1] = system: H9c2; assay: Cardioprotective activity against rat H9c2 cells assessed as inhibition of doxorubicin-induced cytotoxicity by measuring increase in cell suvival at 1 nM preincubated for 10 hrs followed by doxorubicin treatment and measured after 14 hrs by cQuant based analysis (reference value: 0%); assay type: functional; parameters: scale not given: the % may be the effect or the level left; details: time 24 hrs
[2] = system: H9c2; assay: Cardioprotective activity against rat H9c2 cells assessed as inhibition of doxorubicin-induced ROS production at 0.3 nM preincubated for 14 hrs followed by loading with DCFDA dye for 45 mins and later exposed to doxorubicin for 3 hrs by DCF-DA probe based fluorescence assay (reference value: 0%); assay type: functional; details: H9c2, 17.75 h, time 1065 min
[3] = system: H9c2; assay: Cardioprotective activity against rat H9c2 cells assessed as inhibition of doxorubicin-induced ROS production at 1 nM preincubated for 14 hrs followed by loading with DCFDA dye for 45 mins and later exposed to doxorubicin for 3 hrs by DCF-DA probe based fluorescence assay (reference value: 0%); assay type: functional; details: H9c2, 17.75 h, time 1065 min
[4] = system: H9c2; assay: Cardioprotective activity against rat H9c2 cells assessed as inhibition of doxorubicin-induced cytotoxicity by measuring increase in cell suvival at 0.3 nM preincubated for 10 hrs followed by doxorubicin treatment and measured after 14 hrs by cQuant based analysis (reference value: 0%); assay type: functional; parameters: scale not given: the % may be the effect or the level left; details: time 24 hrs
[5] = system: H9c2; assay: Cardioprotective activity against rat H9c2 cells assessed as inhibition of doxorubicin-induced cytotoxicity at 10 to 30 nM preincubated for 10 hrs followed by doxorubicin treatment and measured after 14 hrs by cQuant based analysis; assay type: functional, cell-based; details: dose 10-30 nM, time 24.0 hrs
[6] = system: H9c2; assay: Cardioprotective activity against rat H9c2 cells assessed as inhibition of doxorubicin-induced ROS production at 10 to 30 nM preincubated for 14 hrs followed by loading with DCFDA dye for 45 mins and later exposed to doxorubicin for 3 hrs by DCF-DA probe based fluorescence assay; assay type: functional, cell-based; details: dose 10-30 nM, time 1065.0 min
[7] = system: H9c2; assay: Binding affinity to PHB1/2 in rat H9c2 cells assessed as induction of STAT3 phosphorylation at 10 nM incubated for 10 to 40 mins by western blot analysis; assay type: cell-based; details: time 10-40 min
[8] = system: MCF7; assay: Cytotoxicity against human MCF7 cells; assay type: functional, cell-based
[9] = system: H9c2; assay: Binding affinity to PHB1 in rat H9c2 cells incubated for overnight by AffiGel 10 beads pull down based western blot analysis; assay type: cell-based
[10] = system: H9c2; assay: Binding affinity to PHB2 in rat H9c2 cells incubated for overnight by AffiGel 10 beads pull down based western blot analysis; assay type: cell-based

Compound	Activity [1]	inhibition at 0.0003 µM [2]	inhibition at 0.001 µM [3]	Activity [4]	Activity [5]	Activity [6]	Activity [7]	pEC50 [8]	Activity [9]	Activity [10]
O=C1Nc2ccccc2[C@]12CCN(C1CCCC1)[C@H]2c1ccccc1	0.2%	0%	12.5%	2.6%						
Cc1ccc2c(c1)NC(=O)C21CCNC1c1ccccc1 (stereo not given)	2.6%	0%	3.2%	0.3%						
COC(=O)[C@H]1C[C@@]2(C(=O)Nc3ccccc32)[C@H](c2ccccc2)N1	7.1%	2.9%	2.7%	2.9%						
O=C1Nc2cc(Br)ccc2C12CCNC2c1ccccc1 (stereo not given)	6.5%	3.2%	6.5%	1.1%						
O=C1N[C@@H](c2ccccc2)[C@]2(C(=O)Nc3ccccc32)[C@H]1O	5.8%	6.25%	21.9%	3%						
CN(C)C(=O)CN1CC[C@@]2(C(=O)Nc3ccccc32)[C@@H]1c1ccccc1	0.2%	0%	9.4%	1.4%						
CC(C)N1CC[C@@]2(C(=O)Nc3ccccc32)[C@@H]1c1ccccc1	10.7%	14.3%	20.5%	6.7%	Active	Active	Active			
O=C1Nc2ccccc2[C@]12CCNC2c1ccccc1 (stereo not given in full)	11.3%	12.5%	18.8%	7.7%				5.46		
C=CCN1CC[C@@]2(C(=O)Nc3ccccc32)[C@@H]1c1ccccc1	11.6%	12.7%	20.6%	4.6%	Active	Active				
COc1cc(OC)c2c(c1)O[C@@]1(c3ccc(Br)cc3)[C@H](c3ccccc3)C[C@@H](O)[C@@]21O	9.7%	9.5%	15.9%	3.5%	Active	Active				
CN1C(=O)[C@@]2(c3ccccc31)[C@H](c1ccccc1)N(C)C(=O)[C@@H]2O	2.9%	3.2%	2.1%	1.9%						
O=C(CCC(=O)ON1C(=O)CCC1=O)NCCNC(=O)CNCCOCCOCCOCCN1CCC2(C(=O)Nc3ccccc32)C1c1ccccc1 (stereo not given)									Active	Active
CCCN1CC[C@@]2(C(=O)Nc3ccccc32)[C@@H]1c1ccccc1	0.8%	3.1%	6.2%	1.3%						
O=C(CCC(=O)ON1C(=O)CCC1=O)NCCNC(=O)CNCCOCCOCCOCCN1C(=O)C2(CCNC2c2ccccc2)c2ccccc21 (stereo not given)									Active	Active
CCN1CC[C@@]2(C(=O)Nc3ccccc32)[C@@H]1c1ccccc1	7.4%	9.4%	12.5%	6%						
CCCCN1CC[C@@]2(C(=O)Nc3ccccc32)[C@@H]1c1ccccc1	5.7%	6.2%	12.5%	0.9%						
CN1CC[C@@]2(C(=O)Nc3ccccc32)[C@@H]1c1ccccc1	7.6%	9.4%	15.6%	5.4%						
O=C(CN1CC[C@@]2(C(=O)Nc3ccccc32)[C@@H]1c1ccccc1)N1CCOCC1	0.3%	0%	6.2%	0.3%						
COC(=O)[C@H]1C[C@]2(C(=O)Nc3ccccc32)[C@@H](c2ccccc2)N1	6.4%	3.1%	9.4%	4%						
